In ChEMBL document CHEMBL2401622, “Synthesis and in vitro evaluation of [18F]BMS-754807: a potential PET ligand for IGF-1R” (Bioorg Med Chem Lett, 2013):

How the values were obtained:
Conditions in all cases: 0.0001 µM; call rule not given here
[1] = Drug uptake in human pancreatic tumor at 0.1 nM after 1 hr by phosphor imager autoradiography; format: ADME
[2] = Drug uptake in human breast tumor at 0.1 nM after 1 hr by phosphor imager autoradiography; format: ADME, tissue-based
[3] = Drug uptake in human grade 4 glioblastoma at 0.1 nM after 1 hr by phosphor imager autoradiography; format: ADME

Drug uptake [1]: Active
Drug uptake [2]: Active
Drug uptake [3]: Active
Compound: C[C@@]1(C(=O)Nc2ccc([18F])nc2)CCCN1c1nc(Nc2cc(C3CC3)[nH]n2)c2cccn2n1
